Experimental data as given in patent US4780452A, “F-substituted-3-β-D-ribofuranosyl-3H-imidazo[4,5-b]pyridines and pharmaceutical compositions thereof” (Burroughs Wellcome Co., priority 1986, dated 1988).

Key:
Toxicity (LD50) = settings: rat, in vivo; Charles River CD rats, males and females
[1] = Acetic Acid Writhing Test (AAWT), rat; assay type: in vivo; settings: po, read-out: ED50, analgesic activity, AAWT (Rat)
From the text: (§1) Using the procedure described by Koster et al. in Fed. […] 26, Anti-inflammatory Drugs, Ed.

[2] = New Trypsin Hyperalgesic Assay (NTHA); assay type: in vivo; settings: po, 1 h, read-out: ED50, analgesic activity, NTHA (Rat): dose which reduced the average pain score 50% relative to solvent control
Description: A sensitive mild analgesic assay is the New Trypsin Hyperalgesic Assay (NTHA). At the start of the assay 250 μg of trypsin is injected in one hindlimb of each rat. Thirty minutes later each drug is given per os. One hour after the drugs are given the sensitivity of each rat to a 3.0 kg force is determined.

[3] = Acetic Acid Writhing Test (AAWT), mouse; assay type: in vivo; settings: po, read-out: ED50, analgesic activity, AAWT (Mouse)
From the text: as §1

[4] = Carrageenin Pleurisy Assay (CPA), acute anti-inflammatory activity; assay type: in vivo, rat; settings: po, read-out: ED50, acute anti-inflammatory activity (CPA): dose required to reduce the 3 hour exudate volume by 50%
Description: Following the procedure described by Vinegar et al. in Proc. Soc. Exp. Biol. Med. 151, 5546, (1976), the acute anti-inflammatory activity of the Compound A (defined in Example 16, vide supra) was compared with that of known anti-inflammatory drugs, i.e., aspirin an acetaminophen in the rat. The average 3 hour exudate volume for each drug treated group was determined and the % inhibition relative to a solvent control group calculated, the ED50 being the dose required to reduce the 3 hour exudate volume by 50%.

[5] = Yeast-induced hyperthermia assay, antipyretic activity; assay type: in vivo; settings: po; rat, n exceeds 10
From the text: The Yeast-induced hyperthermia assay was used according to the procedure described by Khalili-Varasteh et al. in Arch. Int. Pharmacodyn.

[6] = rat, p.o., 250 μg trypsin in one hindlimb, 3.0 kg force one hour after drug, n exceeds 10

SMILES	LD50 (Toxicity (LD50))	ED50 ([1]; rat, p.o., n exceeds 10)	ED50 [2, 6]	ED50 ([3]; mouse, p.o., n exceeds 10)	ED50 ([4]; rat, p.o., 3 hour exudate volume, n exceeds 10)	ED50 [5]	ED50 ([1]; Rattus norvegicus)	ED50 ([2]; Rattus norvegicus)	ED50 ([3]; Mus musculus)	ED50 ([4]; Rattus norvegicus, 3 h)
OC[C@H]1O[C@@H](n2cnc3c(Nc4ccccc4)ccnc32)[C@H](O)[C@@H]1O [Compound A, 7-anilino-3-β-D-ribofuranosyl-3H-imidazo[4,5-b]pyridine]	> 100 mg/kg	0.74 ± 0.093 mg/kg	0.1 ± 0.03 mg/kg	0.33 ± 0.038 mg/kg	0.24 ± 0.063 mg/kg	0.65 ± 0.06 mg/kg				
CC(=O)Oc1ccccc1C(=O)O [Aspirin]						50 ± 8.1 mg/kg	137 ± 16.9 mg/kg	14 ± 2.7 mg/kg	21 ± 3.4 mg/kg	28 ± 3.2 mg/kg
CC(=O)Nc1ccc(O)cc1 [Acetaminophen]			13 ± 1.7 mg/kg			72 ± 8.6 mg/kg				
